Here are results for 13 molecules from ChEMBL document CHEMBL5465560, “Selectivity Literature for EUbOPEN Chemogenomic Library” (2024).

For assay [1], the target named is Ribosomal protein S6 kinase alpha-2 (Homo sapiens) (UniProt Q15349). In words: Selectivity interaction (Ambit KINOMEscan and KiNATiv profiling in Jurkat cells) EUB0000090b RPS6KA2. To be noted: at 1 µM. The assay is classed as cell-based.
Assay [2] has as its target T1, Serine/threonine-protein kinase ULK3 (Homo sapiens) (UniProt Q6PHR2).
T1 sequence (whole entry): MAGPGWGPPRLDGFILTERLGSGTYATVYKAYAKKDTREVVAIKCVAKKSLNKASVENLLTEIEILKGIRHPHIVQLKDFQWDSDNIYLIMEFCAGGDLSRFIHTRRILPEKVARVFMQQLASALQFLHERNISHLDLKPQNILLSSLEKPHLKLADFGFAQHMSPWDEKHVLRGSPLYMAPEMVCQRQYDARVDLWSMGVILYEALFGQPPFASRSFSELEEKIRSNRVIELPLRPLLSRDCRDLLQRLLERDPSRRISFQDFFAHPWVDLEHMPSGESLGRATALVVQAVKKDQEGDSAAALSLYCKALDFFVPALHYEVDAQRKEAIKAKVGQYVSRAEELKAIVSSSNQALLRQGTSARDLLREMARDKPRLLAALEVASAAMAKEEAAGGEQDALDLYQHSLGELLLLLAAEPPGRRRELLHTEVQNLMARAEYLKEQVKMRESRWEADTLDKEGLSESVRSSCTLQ
In words: Selectivity interaction (Ambit KINOMEscan and KiNATiv profiling in Jurkat cells) EUB0000090b ULK3. It is filed as cell-based. The following applies: at 1 µM.

Assay [3] concerns the target T2, Casein kinase I isoform alpha-like (Homo sapiens) (UniProt Q8N752).
T2 sequence (whole entry): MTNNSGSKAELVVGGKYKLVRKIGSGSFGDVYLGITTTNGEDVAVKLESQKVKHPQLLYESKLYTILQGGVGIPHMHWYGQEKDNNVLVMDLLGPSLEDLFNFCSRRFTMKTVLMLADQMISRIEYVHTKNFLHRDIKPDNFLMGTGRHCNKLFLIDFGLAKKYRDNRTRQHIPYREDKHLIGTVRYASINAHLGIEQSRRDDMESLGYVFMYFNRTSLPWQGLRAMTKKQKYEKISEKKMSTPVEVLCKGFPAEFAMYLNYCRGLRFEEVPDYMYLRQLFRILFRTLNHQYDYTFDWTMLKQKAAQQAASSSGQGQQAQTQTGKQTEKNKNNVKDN
Kind of assay: Selectivity interaction (KinomeScan (DiscoverX)) EUB0001079a CSNK1A1L. To be noted: at 1 µM.

Assay [4] deals with T3, NUAK family SNF1-like kinase 2 (Homo sapiens) (UniProt Q9H093).
T3 sequence (whole entry): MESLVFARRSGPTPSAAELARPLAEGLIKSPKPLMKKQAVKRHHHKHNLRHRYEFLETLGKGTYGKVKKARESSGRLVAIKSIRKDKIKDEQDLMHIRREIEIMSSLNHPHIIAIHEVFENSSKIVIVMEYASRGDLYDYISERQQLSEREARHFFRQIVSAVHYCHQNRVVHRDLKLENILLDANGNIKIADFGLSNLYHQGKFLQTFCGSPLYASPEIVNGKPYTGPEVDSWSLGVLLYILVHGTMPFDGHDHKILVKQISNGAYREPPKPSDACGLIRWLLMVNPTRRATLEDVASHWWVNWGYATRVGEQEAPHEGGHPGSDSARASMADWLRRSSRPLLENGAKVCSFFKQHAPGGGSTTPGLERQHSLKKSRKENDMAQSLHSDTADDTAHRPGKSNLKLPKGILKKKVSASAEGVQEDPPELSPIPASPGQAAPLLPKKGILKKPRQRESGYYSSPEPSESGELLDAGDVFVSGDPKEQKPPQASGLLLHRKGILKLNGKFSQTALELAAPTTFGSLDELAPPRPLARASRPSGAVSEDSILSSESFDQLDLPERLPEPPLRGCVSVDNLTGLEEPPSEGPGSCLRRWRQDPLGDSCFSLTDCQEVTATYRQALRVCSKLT
In words: Selectivity interaction (KinomeScan (DiscoverX)) EUB0001079a NUAK2. To be noted: at 1 µM.

Assay [5] deals with Serine/threonine-protein kinase 16 (Homo sapiens, UniProt O75716). In words: Selectivity interaction (KinomeScan (DiscoverX)) EUB0000092b STK16. To be noted: at 10 µM.
Chain of Serine/threonine-protein kinase 16 (O75716 whole entry): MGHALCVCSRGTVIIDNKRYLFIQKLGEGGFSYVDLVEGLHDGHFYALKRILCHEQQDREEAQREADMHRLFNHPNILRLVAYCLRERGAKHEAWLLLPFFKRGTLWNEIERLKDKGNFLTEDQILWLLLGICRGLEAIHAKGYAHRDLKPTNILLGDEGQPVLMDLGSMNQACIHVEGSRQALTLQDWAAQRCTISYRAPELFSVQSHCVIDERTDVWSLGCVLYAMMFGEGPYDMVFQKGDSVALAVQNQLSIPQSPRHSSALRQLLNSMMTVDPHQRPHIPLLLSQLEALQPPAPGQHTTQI
Assay [6] deals with Homeodomain-interacting protein kinase 3 (Homo sapiens, UniProt Q9H422). In words: Selectivity interaction (KinomeScan (DiscoverX)) EUB0001049a HIPK3. To be noted: at 1 µM.
A further assay addresses Misshapen-like kinase 1 (Homo sapiens, UniProt Q8N4C8). Kind of assay: Selectivity interaction (KinomeScan (DiscoverX)) EUB0000655a MINK1. To be noted: at 10 µM.
The next assay addresses Adenosine receptor A2a (Homo sapiens, UniProt P29274). Kind of assay: Selectivity interaction (Panel of kinases, GPCRs, ion channels and transporters (enzymatic assay)) EUB0000223bCl ADORA2A.
Assay [7] concerns the target Serine/threonine-protein kinase 33 (Homo sapiens) (UniProt Q9BYT3). In words: Selectivity interaction (KinomeScan (DiscoverX)) EUB0000607a STK33. The following applies: at 10 µM.
In assay [8] the target is Cyclin-dependent kinase 7 (Homo sapiens, UniProt P50613). Kind of assay: Selectivity interaction (ActivX KiNativ screen (kinase selectivity in THP-1 cell lysates)) EUB0000639a CDK7. The assay is classed as subcellular. To be noted: lysate, at 0.04 µM.
Chain of Cyclin-dependent kinase 7 (P50613 whole entry): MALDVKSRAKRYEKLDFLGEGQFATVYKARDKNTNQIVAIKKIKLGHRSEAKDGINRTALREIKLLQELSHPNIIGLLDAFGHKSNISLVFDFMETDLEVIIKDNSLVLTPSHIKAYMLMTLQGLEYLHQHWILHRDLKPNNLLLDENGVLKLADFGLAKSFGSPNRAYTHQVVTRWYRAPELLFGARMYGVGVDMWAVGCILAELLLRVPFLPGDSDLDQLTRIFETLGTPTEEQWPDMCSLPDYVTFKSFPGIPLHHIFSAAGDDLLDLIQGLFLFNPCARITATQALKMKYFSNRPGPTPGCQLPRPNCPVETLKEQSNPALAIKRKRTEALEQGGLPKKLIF
In assay [9] the target is Mitogen-activated protein kinase 11 (Homo sapiens) (UniProt Q15759). Kind of assay: Selectivity interaction (ActivX KiNativ screen (kinase selectivity in THP-1 cell lysates)) EUB0000639a MAPK11. It is filed as subcellular. To be noted: lysate.
Chain of Mitogen-activated protein kinase 11 (Homo sapiens) (Q15759 whole entry): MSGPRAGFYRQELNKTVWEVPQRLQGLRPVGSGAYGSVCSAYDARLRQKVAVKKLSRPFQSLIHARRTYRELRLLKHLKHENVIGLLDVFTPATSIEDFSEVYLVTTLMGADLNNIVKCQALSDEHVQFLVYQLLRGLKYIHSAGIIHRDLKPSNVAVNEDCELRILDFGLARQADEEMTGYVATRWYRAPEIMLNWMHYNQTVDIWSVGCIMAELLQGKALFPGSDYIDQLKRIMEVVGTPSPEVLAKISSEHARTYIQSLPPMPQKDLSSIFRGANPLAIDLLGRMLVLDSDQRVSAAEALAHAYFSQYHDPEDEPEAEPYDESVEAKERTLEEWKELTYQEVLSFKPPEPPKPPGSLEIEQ
In assay [10] the target is Phosphatidylinositol 4-kinase beta (Homo sapiens, UniProt Q9UBF8). In words: Selectivity interaction (ActivX KiNativ screen (kinase selectivity in THP-1 cell lysates)) EUB0000639a PI4KB. It is filed as subcellular. To be noted: lysate, at 5 µM.
Chain of Phosphatidylinositol 4-kinase beta (Q9UBF8 2-816 limits assumed): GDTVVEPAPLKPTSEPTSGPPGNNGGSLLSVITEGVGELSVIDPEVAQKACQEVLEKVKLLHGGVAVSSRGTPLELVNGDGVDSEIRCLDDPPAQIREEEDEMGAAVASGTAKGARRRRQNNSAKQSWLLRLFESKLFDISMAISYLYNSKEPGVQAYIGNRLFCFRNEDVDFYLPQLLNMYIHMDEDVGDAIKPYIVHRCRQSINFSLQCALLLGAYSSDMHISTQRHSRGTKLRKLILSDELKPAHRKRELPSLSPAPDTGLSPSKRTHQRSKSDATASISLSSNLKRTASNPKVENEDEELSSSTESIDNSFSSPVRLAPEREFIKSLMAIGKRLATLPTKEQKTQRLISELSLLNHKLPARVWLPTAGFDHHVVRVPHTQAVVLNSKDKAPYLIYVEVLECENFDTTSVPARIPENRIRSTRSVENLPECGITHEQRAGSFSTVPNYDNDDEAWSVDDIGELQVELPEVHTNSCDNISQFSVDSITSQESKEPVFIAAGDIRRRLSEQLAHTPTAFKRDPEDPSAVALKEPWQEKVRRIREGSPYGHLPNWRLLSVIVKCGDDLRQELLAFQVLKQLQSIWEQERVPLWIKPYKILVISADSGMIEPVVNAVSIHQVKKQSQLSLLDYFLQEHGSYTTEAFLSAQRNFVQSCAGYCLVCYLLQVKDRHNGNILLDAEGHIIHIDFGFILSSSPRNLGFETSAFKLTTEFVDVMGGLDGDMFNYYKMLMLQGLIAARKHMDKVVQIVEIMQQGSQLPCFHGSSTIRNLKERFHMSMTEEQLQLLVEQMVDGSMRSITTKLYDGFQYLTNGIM
Assay [11] deals with Cyclin-dependent kinase 3 (Homo sapiens) (UniProt Q00526). Kind of assay: Selectivity interaction (KinomeScan (DiscoverX)) EUB0000229b CDK3. To be noted: at 10 µM.
Chain of Cyclin-dependent kinase 3 (Homo sapiens) (Q00526 whole entry, looked up): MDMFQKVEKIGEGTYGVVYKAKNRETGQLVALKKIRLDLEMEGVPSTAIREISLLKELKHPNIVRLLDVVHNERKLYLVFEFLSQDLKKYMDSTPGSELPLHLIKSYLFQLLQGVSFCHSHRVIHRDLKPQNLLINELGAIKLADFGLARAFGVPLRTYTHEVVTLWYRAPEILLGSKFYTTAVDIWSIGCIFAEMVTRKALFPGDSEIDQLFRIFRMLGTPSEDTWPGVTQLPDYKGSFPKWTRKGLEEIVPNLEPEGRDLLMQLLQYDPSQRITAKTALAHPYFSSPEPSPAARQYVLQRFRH
Assay [12] has as its target 5-hydroxytryptamine receptor 2B (Homo sapiens, UniProt P41595). In words: Selectivity interaction (GPCR panel (PDSP screen)) EUB0000311b HTR2B. The following applies: at 10 µM.
Assay [13] concerns the target Vascular endothelial growth factor receptor 2 (Homo sapiens, UniProt P35968). In words: Selectivity interaction (Kinase panel (enzymatic assay)) EUB0000595a KDR.
Assay [14] addresses Tyrosine-protein kinase Blk (Homo sapiens) (UniProt P51451). The following applies: at 10 µM.
Assay [15] concerns the target Mitogen-activated protein kinase 11 (Homo sapiens) (UniProt Q15759). In words: Selectivity interaction (KinomeScan (DiscoverX)) EUB0001619a MAPK11. The following applies: at 1 µM.
The target in assay [16] is Serine/threonine-protein kinase PAK 3 (Homo sapiens) (UniProt O75914). Kind of assay: Selectivity interaction (KinomeScan (DiscoverX)) EUB0000618a PAK3. The following applies: at 10 µM.

Chain of Serine/threonine-protein kinase 33 (Homo sapiens) (Q9BYT3 whole entry, looked up): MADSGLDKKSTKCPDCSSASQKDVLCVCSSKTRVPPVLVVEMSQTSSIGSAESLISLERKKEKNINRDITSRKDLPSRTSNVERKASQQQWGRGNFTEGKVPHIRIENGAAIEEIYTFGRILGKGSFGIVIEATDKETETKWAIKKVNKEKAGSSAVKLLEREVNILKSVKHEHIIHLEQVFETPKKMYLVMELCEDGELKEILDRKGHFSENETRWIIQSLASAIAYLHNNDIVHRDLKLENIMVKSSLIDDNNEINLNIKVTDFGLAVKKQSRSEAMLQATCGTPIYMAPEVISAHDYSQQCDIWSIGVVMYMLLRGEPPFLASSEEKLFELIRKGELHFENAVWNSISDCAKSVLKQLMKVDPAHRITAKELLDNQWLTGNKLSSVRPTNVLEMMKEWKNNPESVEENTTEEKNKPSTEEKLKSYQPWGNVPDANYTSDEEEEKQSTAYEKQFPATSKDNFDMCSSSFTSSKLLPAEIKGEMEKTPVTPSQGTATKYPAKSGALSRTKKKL
Chain of Vascular endothelial growth factor receptor 2 (P35968 whole entry): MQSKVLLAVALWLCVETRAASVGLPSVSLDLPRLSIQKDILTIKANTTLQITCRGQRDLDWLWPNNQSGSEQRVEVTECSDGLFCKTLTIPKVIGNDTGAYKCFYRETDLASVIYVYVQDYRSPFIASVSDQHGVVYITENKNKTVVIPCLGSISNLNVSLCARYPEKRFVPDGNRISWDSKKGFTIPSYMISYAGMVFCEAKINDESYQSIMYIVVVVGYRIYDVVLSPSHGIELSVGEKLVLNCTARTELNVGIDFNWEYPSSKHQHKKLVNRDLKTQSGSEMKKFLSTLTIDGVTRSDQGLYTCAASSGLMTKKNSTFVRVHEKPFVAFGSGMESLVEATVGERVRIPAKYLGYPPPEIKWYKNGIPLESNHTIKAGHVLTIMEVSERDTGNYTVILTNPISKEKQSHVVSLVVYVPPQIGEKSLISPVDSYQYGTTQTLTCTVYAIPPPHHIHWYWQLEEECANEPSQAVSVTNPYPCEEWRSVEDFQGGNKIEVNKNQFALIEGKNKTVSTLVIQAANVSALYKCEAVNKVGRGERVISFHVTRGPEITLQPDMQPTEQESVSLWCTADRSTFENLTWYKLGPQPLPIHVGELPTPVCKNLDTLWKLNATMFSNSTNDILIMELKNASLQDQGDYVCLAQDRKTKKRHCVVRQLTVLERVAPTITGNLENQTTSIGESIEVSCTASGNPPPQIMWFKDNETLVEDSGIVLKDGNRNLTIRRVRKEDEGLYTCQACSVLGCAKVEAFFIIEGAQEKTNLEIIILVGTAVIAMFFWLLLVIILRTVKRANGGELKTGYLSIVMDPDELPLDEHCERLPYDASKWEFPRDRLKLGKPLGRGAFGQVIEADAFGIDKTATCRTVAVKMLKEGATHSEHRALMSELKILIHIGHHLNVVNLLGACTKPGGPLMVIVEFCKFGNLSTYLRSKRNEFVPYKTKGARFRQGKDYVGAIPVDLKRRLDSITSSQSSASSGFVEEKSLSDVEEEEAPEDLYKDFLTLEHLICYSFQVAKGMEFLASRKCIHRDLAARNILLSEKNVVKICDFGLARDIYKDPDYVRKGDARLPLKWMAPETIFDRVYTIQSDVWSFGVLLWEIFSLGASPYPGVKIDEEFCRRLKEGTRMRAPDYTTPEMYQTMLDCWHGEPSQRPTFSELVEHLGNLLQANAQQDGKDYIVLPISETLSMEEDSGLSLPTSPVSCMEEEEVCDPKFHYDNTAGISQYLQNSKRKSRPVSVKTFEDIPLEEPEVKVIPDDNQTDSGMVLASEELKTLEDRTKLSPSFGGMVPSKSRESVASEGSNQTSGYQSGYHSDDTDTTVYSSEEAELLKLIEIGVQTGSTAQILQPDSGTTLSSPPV
Chain of Ribosomal protein S6 kinase alpha-2 (Homo sapiens) (Q15349 whole entry): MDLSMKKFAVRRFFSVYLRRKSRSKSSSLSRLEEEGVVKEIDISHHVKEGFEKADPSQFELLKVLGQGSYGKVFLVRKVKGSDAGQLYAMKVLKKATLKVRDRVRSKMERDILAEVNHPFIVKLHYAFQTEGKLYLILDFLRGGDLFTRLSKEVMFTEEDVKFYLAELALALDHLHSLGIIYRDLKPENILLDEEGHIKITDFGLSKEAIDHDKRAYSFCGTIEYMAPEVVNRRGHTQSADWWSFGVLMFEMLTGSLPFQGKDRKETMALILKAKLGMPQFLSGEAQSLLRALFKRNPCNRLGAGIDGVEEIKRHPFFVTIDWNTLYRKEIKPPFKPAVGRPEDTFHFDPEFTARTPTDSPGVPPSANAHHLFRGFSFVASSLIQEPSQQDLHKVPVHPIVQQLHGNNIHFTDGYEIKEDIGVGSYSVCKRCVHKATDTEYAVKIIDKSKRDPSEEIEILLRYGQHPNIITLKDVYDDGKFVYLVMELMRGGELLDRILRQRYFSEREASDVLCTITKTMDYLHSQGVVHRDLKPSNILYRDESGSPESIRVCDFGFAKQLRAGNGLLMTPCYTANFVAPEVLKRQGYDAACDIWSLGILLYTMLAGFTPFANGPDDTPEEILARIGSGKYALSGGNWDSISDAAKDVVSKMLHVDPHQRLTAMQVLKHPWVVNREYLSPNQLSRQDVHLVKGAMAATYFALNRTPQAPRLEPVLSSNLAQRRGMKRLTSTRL

With `CN(C)C/C=C/C(=O)Nc1ccc(C(=O)N2CCCC(Nc3ncc(Cl)c(-c4c[nH]c5ccccc45)n3)C2)cc1` (configuration not stated), the results for the % of control in [1] and in [2] were 88% and 87%, respectively.
With `Nc1cnc(N2CCc3cc(S(=O)(=O)Nc4c(F)cc(Cl)cc4F)cc(N4CCCC4=O)c32)nc1` [TP-020n], the % of control in assay [3] and in [4] was 100% each time.
With `CCC(=O)N1CCN(c2ccc(-n3c(=O)ccc4cnc5ccc(-c6cnc7ccccc7c6)cc5c43)cc2C(F)(F)F)CC1`, in [5], the % of control is 18%.
`COc1cc(Nc2nc(C)cc(-c3cnn4nc(OC)ccc34)n2)cc(C(F)(F)F)c1` yielded a % of control in [6] of 95%.
`CN(C)CCOc1ccc(-c2nc(-c3ccncc3)c(-c3ccc4c(c3)CC/C4=N\O)[nH]2)cc1` had a % of control on Misshapen-like kinase 1 of 6%.
As for `COc1cc(C(=O)N2CC[C@@H](O)[C@@H](N)C2)cc2nc(-c3cc4ccccc4n3CC3CC3)n(C)c12`, the pXC50 on Adenosine receptor A2a was < 4.5 M.
Regarding `CNC(=O)Nc1ccc(-c2nc(N3CC4CCC(C3)O4)c3cnn(C4CCC5(CC4)OCCO5)c3n2)cc1`, the % of control in assay [7] stood at 82%.
As to `CC[C@@H]1[C@H](F)C(=O)N[C@@H]1COc1nccc2cc(C(N)=O)c(OC)cc12` [ZIMLOVISERTIB], the % of inhibition is -3.7% in [8]; -7.8% in assay [9] (at 0.01 µM); -35.7% in assay [9] (at 0.04 µM); -16.6% in assay [9] (at 0.2 µM); -3.6% in assay [9] (at 1 µM); -19.3% in assay [9] (at 5 µM). In addition, in assay [10], the % of inhibition stood at 5.2%.
For `COc1cc(N(C)c2ccnc3ccc(C(F)(F)F)cc23)cc(OC)c1OC`, the % binding in assay [11] stood at 100%.
On to `CCc1ccccc1C(=O)Nc1n[nH]c2c(C)c(F)c(C3C(C#N)=C(C)N(C)C(C)=C3C#N)cc12` [BAY-3827], for which the % of inhibition in assay [12] amounted to 32.5%.
One may read the IC50 as the concentration needed to halve the response being measured. A low value points to higher potency. On to `COCC(=O)NC/C=C/c1ccc2ncnc(Nc3ccc(Oc4ccc(C)nc4)c(C)c3)c2c1` [CP-724714], for which the IC50 in assay [13] is > 10 µM. In [14], this molecule had a % of control of 62%.
In assay [15], `N#Cc1cccc(-c2c[nH]c3ncnc(N4CCOCC4)c23)c1` yielded a % of control of 100%.
In the case of `O[C@H]1CC[C@H](Nc2ncc3nc(Nc4c(F)cc(F)cc4F)n([C@H]4CCOC4)c3n2)CC1`, in [16], the % of control is 100%.
